Source: US8501153B2, “Active enantiomer” (GE Healthcare Limited, priority 2009, dated 2013)
Where two headings read alike, the source gives them in different places.

Legend:
[1] = biological target: T1, Wistar rat heart PBR (Rattus norvegicus, UniProt P16257); test: In vitro potency assay, competition binding against [3H]PK-11195, rat heart PBR
T1 construct: from tissue; host or cells: Wistar rat heart
Procedure: (§1) Affinity for PBR was screened using a method adapted from Le Fur et al (Life Sci. 1983; USA 33: 449-57). Non-radioactive analogues of the PET tracer of the invention and the associated racemate were tested. Each test compound (dissolved in 50 mM Tris-HCl, pH 7.4, 10 mM MgCl2 containing 1% DMSO) competed for binding to either Wistar rat heart PBR or human PBR against 0.3 nM [^3H] PK-11195. The reaction was carried out in 50 mM Tris-HCl, pH 7.4 10 mM MgCl2 for 15 minutes at 25° C.

[2] = biological target: human PBR (Homo sapiens, UniProt P30536); test: In vitro potency assay, competition binding against [3H]PK-11195, human PBR
Procedure: as §1

[3] = biological target: T2, PBR (Rattus norvegicus, UniProt P16257); test: In vivo blocking assay (biodistribution after pre-administration of PK11195 or non-radioactive analogue); set-up: species or system Wistar rats; settings: 30 min after injection; for Blood (% of vehicle), PK11195 block / Lungs (% of vehicle), PK11195 block / Muscle (% of vehicle), PK11195 block / Olfactory bulb uptake (% of vehicle), PK11195 block / Striata uptake (% of vehicle), PK11195 block: PK11195 3 mg/kg 5 min before tracer; for Blood (% of vehicle), Non-radioactive Analogue block / Lungs (% of vehicle), Non-radioactive Analogue block / Muscle (% of vehicle), Non-radioactive Analogue block / Olfactory bulb uptake (% of vehicle), Non-radioactive Analogue block / Striata uptake (% of vehicle), Non-radioactive Analogue block: non-radioactive analogue 3 mg/kg 5 min before tracer
T2 construct: Various tissues including brain stem and olfactory bulb were removed from the animals; from tissue; host or cells: Wistar rat, in vivo tissues (A7); frozen sections of brain stem and olfactory bulb (A8)
Procedure: The in vivo biodistributions of the PET tracer of the invention compared with its associated racemate were tested after pre-administration of their respective non-radioactive analogues, or pre-administration of the known PBR-specific ligand, PK11195.
PK11195 or a non-radioactive analogue (both at 3 mg/kg) was administered 5 min before the radiolabelled test compound.

[4] = biological target: T2, PBR; test: Facial nerve axotomy model of inflammation, in vitro autoradiography of tissue sections; assay type: binding, Wistar rats; settings: for Naïve brain stem % specific binding, Unlabelled ligand / Olfactory bulb % specific binding, Unlabelled ligand / FNA brain stem % specific binding, Unlabelled ligand: blocked with non-radioactive PET tracer at 1 μM; for Naïve brain stem % specific binding, PK11195 / Olfactory bulb % specific binding, PK11195 / FNA brain stem % specific binding, PK11195: blocked with non-radioactive PK11195 at 1 μM; for FNA brain stem % specific binding, Unlabelled ligand / FNA brain stem % specific binding, PK11195: facial nerve axotomy
Procedure: Binding to a focal site of neuroinflammation was tested by autoradiography.
Male Wistar rats (200-300 g) were either used naïve, or underwent a facial nerve axotomy according to the procedure described by Graeber and Kreutzberg (J Neurocytol 1986; 15: 363-373). Various tissues including brain stem and olfactory bulb were removed from the animals and rapidly frozen in isopentane then stored at −70° C. until use. Tissues were sectioned (12 μm) and thaw-mounted onto Superfrost Plus slides. Slides were stored at −70° C. until use.
The slides were air dried prior to pre-incubation in Tris-HCl buffer (170 mM, pH 7.4) for 5 min at room temperature. 1000-fold excess of non-radioactive PK11195 at 1 μM, or non-radioactive PET tracer of the invention at 1 μM was added prior to incubation with Tris-HCl buffer (170 mM, pH 7.4) containing […] of test compound for 60 minutes. The reaction was then terminated by rinsing the sections two times for 5 mins each in ice-cold buffer (Tris-HCl, 170 mM, pH 7.4) and then the slides were dipped briefly in distilled water to rinse. Next the slides were dried in air and exposed to x-ray film. When exposing to x-ray film, a reference standard was included, for in vitro autoradiography a reference sample (20μ) was taken from the solution and placed on filter paper (taped onto a glass) and exposed together with the sections. The film was exposed for 24 hours and the data were analysed by drawing regions of interest around the specific anatomic structures as well as around the blocked samples, references and background using MCID software using a density gradient scale as a calibration curve adjusted to the reference sample.

[5] = In vivo biodistribution; settings: for OB:Str 30 min: olfactory bulb to striata ratio; for OB:Str 30 min / OB 30 min: 30 min after injection; for OB 30 min: olfactory bulb, i.v.; for OB 30 min / Brain 2 min: rat; for Brain 2 min: i.v. tail vein, 2 min after injection
Procedure: Adult male Wistar rats (200-300 g) were injected with 1-3 MBq of test compound via the lateral tail vein. At 2, 10, 30 or 60 min (n=3) after injection, rats were euthanised and tissues or fluids were sampled for radioactive measurement on a gamma counter.

[6] = In vivo metabolism study (% parent in brain and plasma by HPLC); settings: for Brain (% parent) 10 min pi / Brain (% parent) 30 min pi / Brain (% parent) 60 min pi: rat brain; for Brain (% parent) 10 min pi / Plasma (% parent) 10 min pi: 10 min post injection; for Brain (% parent) 30 min pi / Plasma (% parent) 30 min pi: 30 min post injection; for Brain (% parent) 60 min pi / Plasma (% parent) 60 min pi: 60 min post injection; for Plasma (% parent) 10 min pi / Plasma (% parent) 30 min pi / Plasma (% parent) 60 min pi: rat plasma
Procedure: The amount of brain or plasma activity that was due to parent test compound was tested up to 1 hour post-administration.
Adult male Wistar rats (150-200 g) were injected with approximately 20 MBq of test compound. Brain and plasma samples were analysed by HPLC at 10, 30 and 60 minutes pi.

[7] = In vitro chiral stability assay in human plasma; assay type: in vitro ADME; settings: non-radioactive; 37° C., 4 hours; chiral HPLC
Procedure: (§2) The non-radioactive PET tracer of the invention obtained according to Example 2 was incubated (37° C.) in human plasma or in rat liver S9 fraction up to 4 hours. The enantiomers were extracted from the biological material by precipitation of proteins. The solid precipitate was separated from the liquid phase, which was evaporated to dryness. The dry residue was dissolved in acetonitrile.
(§3) A Dionex Ultimate 3000 HPLC system consisting of two pumps (micro pump LPG-3000 and Ultimate 3000 pump), a UV/visible detector, an auto sampler and two switching valves was applied in this study. One switching valve was connecting the two pumps and the auto sampler. This set-up made it possible to use either of the pumps to inject into the column. The pump used for injection was connected to the SPE column only. After the injection and elution the SPE column was washed using the injection pump. The system was made ready for a new injection while the chiral analysis was ongoing.
(§4) The other switching valve connected the analytical column and the SPE column. […]
(§5) Elution from the SPE column and separation: The elution started using mobile phase mixture of 10% MeCN and 90% 10 mM ammonium acetate. […] The analytical column was washed for 3 min using 70% MeCN/MeOH and then stabilized at 10% MeCN/MeOH to make the separation system ready for the next injection. […]

[8] = In vitro chiral stability assay in rat liver S9 fraction; assay type: in vitro ADME; settings: non-radioactive; 37° C., 4 hours; chiral HPLC
Procedure: as §2, §3, §4, §5

[9] = non-radioactive analogues tested, against 0.3 nM [3H]PK-11195, 15 minutes at 25° C., read-out: Rat Heart Ki
[10] = non-radioactive analogues tested, against 0.3 nM [3H]PK-11195, 15 minutes at 25° C., read-out: Human Ki

human PBR, sequence (P30536 whole entry): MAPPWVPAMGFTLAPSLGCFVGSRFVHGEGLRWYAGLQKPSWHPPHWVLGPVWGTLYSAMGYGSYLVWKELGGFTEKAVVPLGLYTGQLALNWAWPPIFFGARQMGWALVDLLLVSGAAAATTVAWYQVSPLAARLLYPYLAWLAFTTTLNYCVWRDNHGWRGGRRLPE

Compound	Blood (% of vehicle), PK11195 block [3]	Lungs (% of vehicle), PK11195 block [3]	Muscle (% of vehicle), PK11195 block [3]	Olfactory bulb uptake (% of vehicle), PK11195 block [3]	Striata uptake (% of vehicle), PK11195 block [3]	Blood (% of vehicle), Non-radioactive Analogue block [3]	Lungs (% of vehicle), Non-radioactive Analogue block [3]	Muscle (% of vehicle), Non-radioactive Analogue block [3]	Olfactory bulb uptake (% of vehicle), Non-radioactive Analogue block [3]	Striata uptake (% of vehicle), Non-radioactive Analogue block [3]	Naïve brain stem % specific binding, Unlabelled ligand [4]	Olfactory bulb % specific binding, Unlabelled ligand [4]	Naïve brain stem % specific binding, PK11195 [4]	Olfactory bulb % specific binding, PK11195 [4]	FNA brain stem % specific binding, Unlabelled ligand [4]	FNA brain stem % specific binding, PK11195 [4]	OB:Str 30 min [5]	OB 30 min [5]	Brain 2 min [5]	Brain (% parent) 10 min pi [6]	also measured
CCN(CC)C(=O)C1CCCc2c1c1c(OC)cccc1n2CC[18F] (racemic) [Racemate]	247 % of vehicle	13 % of vehicle	90 % of vehicle	37 % of vehicle	114 % of vehicle	289 % of vehicle	11 % of vehicle	140 % of vehicle	59 % of vehicle	124 % of vehicle	21 % specific binding	59 % specific binding	13 % specific binding	67 % specific binding	72 % specific binding	69 % specific binding	3.0	0.36 % ID/g	0.52 % ID/g	100 ± 0 % parent	Ki [1]: 1.47 nM; Ki [2]: 11.5 nM; Brain (% parent) 30 min pi [6]: 97 ± 1 % parent; Brain (% parent) 60 min pi [6]: 91 ± 2 % parent; Plasma (% parent) 10 min pi [6]: 81 ± 4 % parent; Plasma (% parent) 30 min pi [6]: 49 ± 12 % parent; Plasma (% parent) 60 min pi [6]: 28 ± 1 % parent
CCN(CC)C(=O)[C@@H]1CCCc2c1c1c(OC)cccc1n2CC[18F] [Alternative Enantiomer]																	2.9	0.23 % ID/g	0.53 % ID/g		Ki [1, 9]: 3.87 nM; Ki [2, 10]: 14.1 nM
CCN(CC)C(=O)[C@H]1CCCc2c1c1c(OC)cccc1n2CC[18F] [PET Tracer of Invention]	289 % of vehicle	14 % of vehicle	131 % of vehicle	43 % of vehicle	117 % of vehicle	253 % of vehicle	12 % of vehicle	143 % of vehicle	37 % of vehicle	114 % of vehicle	70 % specific binding	77 % specific binding	70 % specific binding	75 % specific binding	86 % specific binding	86 % specific binding	3.2	0.45 % ID/g	0.53 % ID/g	98 ± 2 % parent	Ki [1, 9]: 0.87 nM; Ki [2, 10]: 9.17 nM; racemisation after incubation in human plasma [7]: No racemisation was observed; racemisation after incubation in rat liver S9 fraction [8]: did not racemise; Brain (% parent) 30 min pi [6]: 96 ± 2 % parent; Brain (% parent) 60 min pi [6]: 94 ± 2 % parent; Plasma (% parent) 10 min pi [6]: 70 ± 18 % parent; Plasma (% parent) 30 min pi [6]: 41 ± 16 % parent; Plasma (% parent) 60 min pi [6]: 21 ± 5 % parent
